Tests used:
MET = target: T1, MET (Homo sapiens, UniProt P08581); experiment: MET Mobility Shift Assay; settings: biochemical assay IC50; 100 μM ATP, 60 minute kinase reaction
T1 construct: purchased Carna Biosciences 08-151
In short: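 Recombinant MET at 0.625 nM was pre-incubated 30 min at room temperature with 1.5 μM FLPeptide30 and 10 mM MgCl2 in HEPES buffer with DTT. The reaction was started with 100 μM ATP, ran 60 min, and was stopped with EDTA. Microfluidic mobility-shift % conversion gave IC50.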

MET D1228N = target: T2, MET D1228N (Homo sapiens, UniProt P08581, D1228N); experiment: MET D1228N Mobility Shift Assay; settings: biochemical assay IC50; 100 μM ATP, 60 minute kinase reaction
T2 construct: purchased Signalchem M52-12IG
In short: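 Enzyme at 0.313 nM preincubated 30 min at room temperature with 1.5 μM FAM-labelled peptide and 10 mM MgCl2 in HEPES buffer with DTT; reaction started with 100 μM ATP, run 60 min, stopped with EDTA. Substrate/product separated by microfluidic mobility shift; IC50 from inhibition of % conversion.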

Ba/F3-TPR-MET cells = target: T3, Ba/F3-TPR-MET cells (Homo sapiens, UniProt P08581); experiment: CellTiter-Glo Cell Viability Assay, Ba/F3-TPR-MET; format: cell-based; settings: 72 hours
T3 construct: fused on or other part: P12270 (Nucleoprotein TPR)
In short: (§1)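 Ba/F3 cells carrying TPR-MET or TPR-MET-D1228N, 3000 per well, were exposed for 72 h at 37 °C to 9-point 3-fold compound dilutions at 0.1% DMSO. Viability was read as ATP by CellTiter-Glo 2.0 luminescence, and IC50 values came from curve fitting.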

[1] = target: T4, Ba/F3-TPR-MET-D1228N cells (Homo sapiens, UniProt P08581, D1228N, cells depend on it); experiment: CellTiter-Glo Cell Viability Assay, Ba/F3-TPR-MET-D1228N; format: cell-based; settings: 72 hours
T4 construct: fused on or other part: P12270 (Nucleoprotein TPR)
In short: as §1

T4 sequence (P08581 whole entry D1228N, the tested form may be a part): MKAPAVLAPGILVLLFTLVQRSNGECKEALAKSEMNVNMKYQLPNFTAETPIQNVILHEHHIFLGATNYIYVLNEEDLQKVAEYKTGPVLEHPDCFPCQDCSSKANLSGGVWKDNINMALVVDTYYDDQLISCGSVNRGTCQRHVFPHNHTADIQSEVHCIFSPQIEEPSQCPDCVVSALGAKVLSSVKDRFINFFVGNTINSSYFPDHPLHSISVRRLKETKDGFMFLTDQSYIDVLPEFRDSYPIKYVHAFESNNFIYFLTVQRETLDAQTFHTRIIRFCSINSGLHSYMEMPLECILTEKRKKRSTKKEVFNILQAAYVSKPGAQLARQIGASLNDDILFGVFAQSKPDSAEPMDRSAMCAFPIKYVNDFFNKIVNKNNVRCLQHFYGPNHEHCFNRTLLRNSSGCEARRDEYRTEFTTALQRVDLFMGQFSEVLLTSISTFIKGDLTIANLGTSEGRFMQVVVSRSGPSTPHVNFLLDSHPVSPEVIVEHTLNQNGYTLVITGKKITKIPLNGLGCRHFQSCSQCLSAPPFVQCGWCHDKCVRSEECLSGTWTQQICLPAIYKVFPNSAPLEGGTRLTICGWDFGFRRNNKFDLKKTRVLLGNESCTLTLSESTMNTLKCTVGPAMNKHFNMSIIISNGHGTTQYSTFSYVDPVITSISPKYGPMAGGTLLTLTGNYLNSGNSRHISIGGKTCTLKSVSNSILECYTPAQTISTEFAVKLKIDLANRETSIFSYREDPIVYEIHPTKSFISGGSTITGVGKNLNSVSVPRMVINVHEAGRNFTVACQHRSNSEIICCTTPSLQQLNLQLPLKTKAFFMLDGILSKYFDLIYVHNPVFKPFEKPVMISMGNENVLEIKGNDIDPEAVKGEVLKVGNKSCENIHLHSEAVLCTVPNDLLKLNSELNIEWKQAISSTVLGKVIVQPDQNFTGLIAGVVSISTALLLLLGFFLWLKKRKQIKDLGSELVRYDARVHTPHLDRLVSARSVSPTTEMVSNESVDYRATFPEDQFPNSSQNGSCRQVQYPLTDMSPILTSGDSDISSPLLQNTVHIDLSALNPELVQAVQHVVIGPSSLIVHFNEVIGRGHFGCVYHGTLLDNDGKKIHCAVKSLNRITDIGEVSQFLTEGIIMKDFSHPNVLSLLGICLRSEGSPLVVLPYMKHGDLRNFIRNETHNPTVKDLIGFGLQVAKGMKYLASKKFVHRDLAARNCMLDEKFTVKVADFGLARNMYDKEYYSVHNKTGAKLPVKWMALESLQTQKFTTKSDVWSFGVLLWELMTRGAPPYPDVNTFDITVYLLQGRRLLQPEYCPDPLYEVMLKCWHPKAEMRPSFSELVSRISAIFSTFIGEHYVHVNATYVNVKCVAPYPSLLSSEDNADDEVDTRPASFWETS
T2 sequence (P08581 25-1390 D1228N): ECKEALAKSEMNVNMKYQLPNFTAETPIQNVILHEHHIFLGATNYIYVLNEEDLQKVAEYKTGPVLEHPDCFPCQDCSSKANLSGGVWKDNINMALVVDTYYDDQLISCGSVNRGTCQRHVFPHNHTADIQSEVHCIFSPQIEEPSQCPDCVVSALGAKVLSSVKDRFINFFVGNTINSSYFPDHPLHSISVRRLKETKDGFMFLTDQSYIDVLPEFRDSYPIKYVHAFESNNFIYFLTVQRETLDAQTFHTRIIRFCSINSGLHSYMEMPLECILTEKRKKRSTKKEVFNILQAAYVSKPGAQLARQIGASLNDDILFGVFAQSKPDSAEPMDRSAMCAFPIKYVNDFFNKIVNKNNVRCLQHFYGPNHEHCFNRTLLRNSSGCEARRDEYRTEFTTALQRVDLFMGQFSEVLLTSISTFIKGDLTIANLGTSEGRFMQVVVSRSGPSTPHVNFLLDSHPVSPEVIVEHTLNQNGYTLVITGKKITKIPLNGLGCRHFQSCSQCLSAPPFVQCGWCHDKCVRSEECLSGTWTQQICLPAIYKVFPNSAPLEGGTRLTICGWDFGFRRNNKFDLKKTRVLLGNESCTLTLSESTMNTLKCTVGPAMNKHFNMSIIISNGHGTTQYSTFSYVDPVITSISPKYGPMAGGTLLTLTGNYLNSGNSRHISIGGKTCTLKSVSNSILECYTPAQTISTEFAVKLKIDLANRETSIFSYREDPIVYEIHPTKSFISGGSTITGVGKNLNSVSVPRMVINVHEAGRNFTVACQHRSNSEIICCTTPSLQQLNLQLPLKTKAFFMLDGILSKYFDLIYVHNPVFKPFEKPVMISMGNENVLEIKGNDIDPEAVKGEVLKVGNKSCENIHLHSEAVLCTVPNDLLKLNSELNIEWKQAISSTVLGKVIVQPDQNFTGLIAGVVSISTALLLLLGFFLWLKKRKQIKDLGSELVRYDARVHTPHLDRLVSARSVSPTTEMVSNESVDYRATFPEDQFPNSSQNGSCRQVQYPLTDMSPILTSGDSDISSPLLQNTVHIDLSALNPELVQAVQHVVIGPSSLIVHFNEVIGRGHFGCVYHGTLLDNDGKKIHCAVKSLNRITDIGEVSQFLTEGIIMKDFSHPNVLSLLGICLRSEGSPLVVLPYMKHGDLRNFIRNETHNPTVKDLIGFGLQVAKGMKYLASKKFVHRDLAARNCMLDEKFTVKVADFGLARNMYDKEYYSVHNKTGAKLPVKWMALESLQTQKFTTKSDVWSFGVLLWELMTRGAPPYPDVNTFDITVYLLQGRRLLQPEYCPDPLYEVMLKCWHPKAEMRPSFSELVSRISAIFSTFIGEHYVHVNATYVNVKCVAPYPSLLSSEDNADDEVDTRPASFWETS
T1 sequence (P08581 25-1390): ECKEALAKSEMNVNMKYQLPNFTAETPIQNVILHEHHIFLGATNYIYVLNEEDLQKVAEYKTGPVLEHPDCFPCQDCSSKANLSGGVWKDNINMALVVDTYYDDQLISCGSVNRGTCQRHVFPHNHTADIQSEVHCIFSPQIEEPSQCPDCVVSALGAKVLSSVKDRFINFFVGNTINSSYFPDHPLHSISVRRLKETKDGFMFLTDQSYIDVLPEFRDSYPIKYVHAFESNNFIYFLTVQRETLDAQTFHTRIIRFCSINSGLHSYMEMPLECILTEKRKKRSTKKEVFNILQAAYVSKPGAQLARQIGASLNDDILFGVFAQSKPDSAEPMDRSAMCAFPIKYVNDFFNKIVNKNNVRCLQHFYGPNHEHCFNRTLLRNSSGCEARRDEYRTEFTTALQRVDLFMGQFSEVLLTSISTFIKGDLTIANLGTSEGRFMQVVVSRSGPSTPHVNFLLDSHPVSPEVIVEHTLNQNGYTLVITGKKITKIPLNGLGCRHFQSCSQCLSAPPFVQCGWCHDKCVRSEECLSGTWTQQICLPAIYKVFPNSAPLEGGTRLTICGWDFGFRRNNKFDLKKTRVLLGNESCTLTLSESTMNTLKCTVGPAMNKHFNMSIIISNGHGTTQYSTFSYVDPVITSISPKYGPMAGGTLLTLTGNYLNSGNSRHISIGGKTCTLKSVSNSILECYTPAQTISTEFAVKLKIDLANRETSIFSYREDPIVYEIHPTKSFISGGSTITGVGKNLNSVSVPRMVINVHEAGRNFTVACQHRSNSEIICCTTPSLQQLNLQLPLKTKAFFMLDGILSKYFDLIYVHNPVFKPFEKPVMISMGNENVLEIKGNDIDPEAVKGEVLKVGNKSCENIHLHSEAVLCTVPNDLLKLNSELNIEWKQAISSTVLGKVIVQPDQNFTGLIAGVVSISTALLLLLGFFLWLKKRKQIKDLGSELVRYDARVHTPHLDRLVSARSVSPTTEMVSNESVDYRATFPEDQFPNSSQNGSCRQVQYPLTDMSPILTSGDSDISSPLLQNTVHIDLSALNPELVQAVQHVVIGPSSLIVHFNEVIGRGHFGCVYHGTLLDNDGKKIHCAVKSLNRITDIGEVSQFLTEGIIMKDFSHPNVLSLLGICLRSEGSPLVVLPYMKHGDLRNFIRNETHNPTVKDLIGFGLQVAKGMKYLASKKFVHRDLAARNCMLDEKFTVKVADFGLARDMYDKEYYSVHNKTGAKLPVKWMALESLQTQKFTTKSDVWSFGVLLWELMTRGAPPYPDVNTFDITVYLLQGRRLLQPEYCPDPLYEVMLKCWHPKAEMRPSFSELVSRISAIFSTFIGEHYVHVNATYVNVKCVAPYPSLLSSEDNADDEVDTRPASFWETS

Row | IC50 (MET) [nM] | IC50 (MET D1228N) [nM] | Structure (SMILES) | EC50 (Ba/F3-TPR-MET cells) [nM] | EC50 [1] [nM]
1 | ≤ 100 | ≤ 100 | COc1cc2nccc(Oc3c(F)cc(NC(=O)c4cnccc4OC4CC4)cc3F)c2cn1 [Example 96, 4-cyclopropoxy-N-{3,5-difluoro-4-[(7-methoxy-1,6-naphthyridin-4-yl)oxy]phenyl}pyridine-3-carboxamide] | 100 to 1000 | 100 to 1000
2 | ≤ 100 | ≤ 100 | COc1cc2c(Oc3c(F)cc(NC(=O)c4cnccc4OC4CC4)cc3F)ccnc2cc1OC[C@H](C)O [Example 98, 4-cyclopropoxy-N-[3,5-difluoro-4-({7-[(2S)-2-hydroxypropoxy]-6-methoxyquinolin-4-yl}oxy)phenyl]pyridine-3-carboxamide] | ≤ 100 | ≤ 100
3 | ≤ 100 | ≤ 100 | O=C(Nc1cc(F)c(Oc2ccnc3cc(OCCO)ccc23)c(F)c1)c1cnccc1OC1CC1 [Example 100, 4-cyclopropoxy-N-(3,5-difluoro-4-{[7-(2-hydroxyethoxy)quinolin-4-yl]oxy}phenyl)pyridine-3-carboxamide] | 100 to 1000 | ≤ 100
4 | ≤ 100 | ≤ 100 | C[C@H](O)COc1ccc2c(Oc3c(F)cc(NC(=O)c4cnccc4OC4CC4)cc3F)ccnc2c1 [Example 102, 4-cyclopropoxy-N-[3,5-difluoro-4-({7-[(2S)-2-hydroxypropoxy]quinolin-4-yl}oxy)phenyl]pyridine-3-carboxamide] | 100 to 1000 | 100 to 1000
5 | ≤ 100 | ≤ 100 | COCCOc1cc2nccc(Oc3c(F)cc(NC(=O)c4cnccc4OC4CC4)cc3F)c2cc1OC [Example 106, 4-cyclopropoxy-N-(3,5-difluoro-4-{[6-methoxy-7-(2-methoxyethoxy)quinolin-4-yl]oxy}phenyl)pyridine-3-carboxamide] | ≤ 100 | ≤ 100
6 | ≤ 100 | ≤ 100 | CNCCOc1ccc2c(Oc3c(F)cc(NC(=O)c4cnc(F)cc4OC4CC4)cc3F)ccnc2c1 [Example 109, 4-cyclopropoxy-N-(3,5-difluoro-4-((7-(2-(methylamino)ethoxy)quinolin-4-yl)oxy)phenyl)-6-fluoropyridine-3-carboxamide] | ≤ 100 | ≤ 100
7 | ≤ 100 | ≤ 100 | CNCCOc1cc2nccc(Oc3c(F)cc(NC(=O)c4cnc(C)nc4OC4CC4)cc3F)c2cc1OC [Example 114, 4-cyclopropoxy-N-[3,5-difluoro-4-({6-methoxy-7-[2-(methylamino)ethoxy]quinolin-4-yl}oxy)phenyl]-2-methylpyrimidine-5-carboxamide] | 100 to 1000 | 100 to 1000
8 | ≤ 100 | ≤ 100 | CNCCOc1ccc2c(Oc3c(F)cc(NC(=O)c4cnc(C)cc4OC4CC4)cc3F)ccnc2c1 [Example 115, 4-cyclopropoxy-N-(3,5-difluoro-4-((7-(2-(methylamino)ethoxy)quinolin-4-yl)oxy)phenyl)-6-methylpyridine-3-carboxamide] | ≤ 100 | ≤ 100
9 | ≤ 100 | ≤ 100 | CNCCOc1cc2nccc(Oc3c(F)cc(NC(=O)c4cnc(C)cc4OC4CC4)cc3F)c2cc1OC [Example 117, 4-cyclopropoxy-N-[3,5-difluoro-4-({6-methoxy-7-[2-(methylamino)ethoxy]quinolin-4-yl}oxy)phenyl]-6-methylpyridine-3-carboxamide] | ≤ 100 | ≤ 100
10 | ≤ 100 | ≤ 100 | COc1cc2c(Oc3c(F)cc(NC(=O)c4c(OC5CC5)ccnc4F)cc3F)ccnc2cc1OCCO [Example 118] | ≤ 100 | ≤ 100
11 | ≤ 100 | ≤ 100 | CCOc1ccnc(F)c1C(=O)Nc1cc(F)c(Oc2ccnc3cc(OCCCNC)c(OC)cc23)c(F)c1 [Example 119] | 100 to 1000 | 100 to 1000

The next lines start with the compound.

Row | Structure (SMILES) | IC50 (MET) [nM] | IC50 (MET D1228N) [nM] | EC50 (Ba/F3-TPR-MET cells) [nM] | EC50 [1] [nM]
12 | COc1cc2nccc(Oc3c(F)cc(NC(=O)c4cnccc4OCCO)cc3F)c2cc1OC [Example 95, N-{4-[(6,7-dimethoxyquinolin-4-yl)oxy]-3,5-difluorophenyl}-4-(2-hydroxyethoxy)pyridine-3-carboxamide] | ≤ 100 | ≤ 100 | 100 to 1000 | 100 to 1000
13 | COc1cc2c(Oc3c(F)cc(NC(=O)c4cnccc4OC4CC4)cc3F)ccnc2cc1OCCO [Example 97, 4-cyclopropoxy-N-(3,5-difluoro-4-{[7-(2-hydroxyethoxy)-6-methoxyquinolin-4-yl]oxy}phenyl)pyridine-3-carboxamide] | ≤ 100 | ≤ 100 | ≤ 100 | ≤ 100
14 | COc1cc2c(Oc3c(F)cc(NC(=O)c4cnccc4OC4CC4)cc3F)ccnc2cc1OC[C@@H](C)O [Example 99, 4-cyclopropoxy-N-[3,5-difluoro-4-({7-[(2R)-2-hydroxypropoxy]-6-methoxyquinolin-4-yl}oxy)phenyl]pyridine-3-carboxamide] | ≤ 100 | ≤ 100 | ≤ 100 | ≤ 100
15 | C[C@@H](O)COc1ccc2c(Oc3c(F)cc(NC(=O)c4cnccc4OC4CC4)cc3F)ccnc2c1 [Example 101, 4-cyclopropoxy-N-[3,5-difluoro-4-({7-[(2R)-2-hydroxypropoxy]quinolin-4-yl}oxy)phenyl]pyridine-3-carboxamide] | ≤ 100 | ≤ 100 | 100 to 1000 | 100 to 1000
16 | CC(C)(O)COc1ccc2c(Oc3c(F)cc(NC(=O)c4cnccc4OC4CC4)cc3F)ccnc2c1 [Example 104, 4-cyclopropoxy-N-(3,5-difluoro-4-{[7-(2-hydroxy-2-methylpropoxy)quinolin-4-yl]oxy}phenyl)pyridine-3-carboxamide] | ≤ 100 | ≤ 100 | 1000 to 10000 | 100 to 1000
17 | COCCOc1ccc2c(Oc3c(F)cc(NC(=O)c4cnccc4OC4CC4)cc3F)ccnc2c1 [Example 105, 4-cyclopropoxy-N-(3,5-difluoro-4-{[7-(2-methoxyethoxy)quinolin-4-yl]oxy}phenyl)pyridine-3-carboxamide] | ≤ 100 | ≤ 100 | 100 to 1000 | ≤ 100
18 | COc1cc2nccc(Oc3c(F)cc(NC(=O)c4cnccc4OC4CC4)cc3F)c2cc1OCCO [Example 107, 4-cyclopropoxy-N-(3,5-difluoro-4-((6-(2-hydroxyethoxy)-7-methoxyquinolin-4-yl)oxy)phenyl)pyridine-3-carboxamide] | ≤ 100 | ≤ 100 | ≤ 100 | ≤ 100
19 | CC(C)(CO)Oc1ccc2c(Oc3c(F)cc(NC(=O)c4cnccc4OC4CC4)cc3F)ccnc2c1 [Example 108, 4-cyclopropoxy-N-(3,5-difluoro-4-((7-((1-hydroxy-2-methylpropan-2-yl)oxy)quinolin-4-yl)oxy)phenyl)pyridine-3-carboxamide] | ≤ 100 | ≤ 100 | 1000 to 10000 | 1000 to 10000
20 | CNCCOc1cc2nccc(Oc3c(F)cc(NC(=O)c4cnc(F)cc4OC4CC4)cc3F)c2cc1OC [Example 110, 4-cyclopropoxy-N-[3,5-difluoro-4-({6-methoxy-7-[2-(methylamino)ethoxy]quinolin-4-yl}oxy)phenyl]-6-fluoropyridine-3-carboxamide] | ≤ 100 | ≤ 100 | ≤ 100 | ≤ 100
21 | COc1cc(OC2CC2)c(C(=O)Nc2cc(F)c(Oc3ccnc4cc(OCCO)c(OC)cc34)c(F)c2)cn1 [Example 111, 4-cyclopropoxy-N-(3,5-difluoro-4-((7-(2-hydroxyethoxy)-6-methoxyquinolin-4-yl)oxy)phenyl)-6-methoxypyridine-3-carboxamide] | ≤ 100 | ≤ 100 | ≤ 100 | ≤ 100
22 | CNCCOc1cc2nccc(Oc3c(F)cc(NC(=O)c4cnc(Cl)cc4OC4CC4)cc3F)c2cc1OC [Example 112, 6-chloro-4-cyclopropoxy-N-[3,5-difluoro-4-({6-methoxy-7-[2-(methylamino)ethoxy]quinolin-4-yl}oxy)phenyl]pyridine-3-carboxamide] | ≤ 100 | ≤ 100 | 100 to 1000 | 100 to 1000
23 | CNCCOc1ccc2c(Oc3c(F)cc(NC(=O)c4cnc(Cl)cc4OC4CC4)cc3F)ccnc2c1 [Example 113, 6-chloro-4-cyclopropoxy-N-[3,5-difluoro-4-({7-[2-(methylamino)ethoxy]quinolin-4-yl}oxy)phenyl]pyridine-3-carboxamide] | ≤ 100 | ≤ 100 | ≤ 100 | ≤ 100
24 | COc1cc2c(Oc3c(F)cc(NC(=O)c4cnc(C)cc4OC4CC4)cc3F)ccnc2cc1OCCO [Example 116, 4-cyclopropoxy-N-(3,5-difluoro-4-{[7-(2-hydroxyethoxy)-6-methoxyquinolin-4-yl]oxy}phenyl)-6-methylpyridine-3-carboxamide] | ≤ 100 | ≤ 100 | ≤ 100 | ≤ 100

Source: patent US11753395B2 (Kinnate Biopharma Inc., priority 2021, dated 2023)
